Source: patent EP0089767A1, “Acid addition salts of a penicillanic acid derivative” (UPJOHN LIMITED, priority 1982, dated 1983)
Where a name gives a salt, the structure may show the parent alone.

How the values were obtained:
S. pyrogenes (UC 152) = test: Antibiotic potency: CD50 in mice challenged with a lethal dose of microorganism; assay type: in vivo; conditions: oral intubation at 0, 24, 48 and 72 hours after interperitoneal challenge with S. pyrogenes (UC 152), dose curing 50% of mice, mean (95% confidence limits); for ED50: Mus musculus
Protocol: (§1) The antibiotic potency of the salts of the present invention is illustrated by the data below providing CD50's of the various antibiotic agents, dissolved in inert vehicle, when administered to mice by oral intubation at 0, 24, 48, and 72 hours after challenge of the mice with an interperitoneally administered dose of microorganism which, in the absence of antibiotic agent, would be lethal. The CD50 for an agent is the dose at which 50% of the mice are cured under such a dosing schedule. In the data below the first number in each entry is the mean value and the numbers in parenthesis are the 95% confidence limits: […]

S. aureus = test: as above; assay type: in vivo; conditions: oral intubation at 0, 24, 48 and 72 hours after interperitoneal challenge with S. aureus, dose curing 50% of mice, mean (95% confidence limits)
Protocol: as §1

Row | SMILES | ED50 (S. pyrogenes (UC 152)) [µmol/kg] | ED50 (S. aureus; Staphylococcus aureus, po) [µmol/kg] | CD50 (S. pyrogenes (UC 152)) | CD50 (S. aureus) | CD50 (S. aureus; hydrochloride)
1 | CC1(C)S[C@@H]2[C@H](NC(=O)[C@H](N)c3ccccc3)C(=O)N2[C@H]1C(=O)O [ampicillin, 6-[D-(2-amino-2-phenylacetamido)] penicillanicacid] | 0.49 | 2 | – | – | –
2 | CCOC(=O)OC(C)OC(=O)[C@@H]1N2C(=O)[C@@H](NC(=O)[C@H](N)c3ccccc3)[C@H]2SC1(C)C (stereo partly drawn) [bacampicillin 1-naphthalene-sulfonate, Bacampicillin 1-Naphthalenesulfonate] | – | – | 0.15 (0.10-0.20) micromoles/kg | 0.74 (0.43-1.3) micromoles/kg | –
3 | CCOC(=O)OC(C)OC(=O)[C@@H]1N2C(=O)[C@@H](NC(=O)[C@H](N)c3ccccc3)[C@H]2SC1(C)C (stereo partly drawn) [bacampicillin-HCl, bacampicillin hydrochloride] | 0.19 | – | – | – | 1.5 (1.0-2.3) micromoles/kg
